In patent publication US20190358348A1, “CHARACTERIZATION OF BIOLOGICAL TISSUES AT A CELLULAR LEVEL USING RED AND FAR-RED FLUORESCENT DYES” (IGR-Institut Gustave Roussy, priority 2012, published 2019):
Like-named read-outs stand apart in the source and are kept apart here.

How the values were obtained:
[1] = cited from earlier work
[2] = system: popliteal and/or inguinal lymph node
[3] = macroscopic guidance of diagnostic procedures

Row | SMILES | side effects for the patients [1, 3] | also measured
1 | CC1(C)C(/C=C/C=C/C=C/C=C2\N(CCCCS(=O)(=O)O)c3ccc4ccccc4c3C2(C)C)=[N+](CCCCS(=O)(=O)[O-])c2ccc3ccccc3c21 [ICG, Indocyanine green] | very limited side effects | –
2 | CN(C)c1ccc2nc3ccc(=[N+](C)C)cc-3sc2c1 [MB, Methylene blue] | very limited side effects | time to macroscopically visible diffusion of dye to the lymph node ([2]; male, Wistar, rat, in vivo): 5 min
3 | CCN(CC)c1ccc(C(=C2C=CC(=[N+](CC)CC)C=C2)c2cc(O)c(S(=O)(=O)[O-])cc2S(=O)(=O)[O-])cc1.[Na+] [PB, sodium patent blue V] | – | time to macroscopically visible diffusion of dye to the lymph node ([2]; rat, in vivo): 5 min; side effects for the patients ([1]; human, in vivo): very limited side effects
4 | Cc1cc2nc3ccc(N(C)C)cc3[s+]c2cc1N.[Cl-] [TB, Toluidine Blue] | very limited side effects | time to macroscopically visible diffusion of dye to the lymph node ([2]; sub-cutaneous injection, 100 μL into footpad): 5 min
5 | Cc1cc(O)c2c(=O)c3c(O)cc(O)c4c5c(O)cc(O)c6c(=O)c7c(O)cc(C)c8c1c2c(c34)c(c78)c65 [hypericin, Hypericin] | very limited side effects | –
